Measured values taken from ChEMBL document CHEMBL4725456, “Therapeutic Potential of Autotaxin Inhibitors in Treatment of Interstitial Lung Diseases” (ACS Med Chem Lett, 2020).

Test: In vivo inhibition of ATX in rat assessed as reduction in plasma LPA levels at 5 mg/kg, po measured after 8 hrs by LC-MS analysis relative to control
Type: functional

Row | Structure (SMILES) | inhibition in vivo at 5 mg/kg [%]
1 | CC(=O)N1CCN(c2ccc(CNc3ccc(OCc4cccc(C#N)c4)nn3)cc2)CC1 | 95.7
2 | COc1ccc(COc2ccc(NCc3ccc(N4CCN(C(C)=O)CC4)cc3)nn2)cn1 | 98.3
